Results reported in ChEMBL document CHEMBL1201862, “PubChem BioAssay data set” (2004).
Active and inactive are the calls of the source.

What was measured:
cells [1] = settings: HEK293
[2] = DRD fibroblast viability loss – cell-based, non-viral oncogenic, luminescence, dose response (AID 1934); assay type: functional; settings: Homo sapiens
cells [3] = assay type: functional, cell-based; settings: HEK-CNG
Leucine aminopeptidase = molecular target: T1, Leucine aminopeptidase (Plasmodium falciparum 3D7, UniProt Q8IL11); assay: P. falciparum M17LAP inhibitors, primary screen, biochemical, fluorogenic H-Leu-NHMec substrate, 1536-well (AID 1619); assay type: functional
T1 sequence (Q8IL11 whole entry): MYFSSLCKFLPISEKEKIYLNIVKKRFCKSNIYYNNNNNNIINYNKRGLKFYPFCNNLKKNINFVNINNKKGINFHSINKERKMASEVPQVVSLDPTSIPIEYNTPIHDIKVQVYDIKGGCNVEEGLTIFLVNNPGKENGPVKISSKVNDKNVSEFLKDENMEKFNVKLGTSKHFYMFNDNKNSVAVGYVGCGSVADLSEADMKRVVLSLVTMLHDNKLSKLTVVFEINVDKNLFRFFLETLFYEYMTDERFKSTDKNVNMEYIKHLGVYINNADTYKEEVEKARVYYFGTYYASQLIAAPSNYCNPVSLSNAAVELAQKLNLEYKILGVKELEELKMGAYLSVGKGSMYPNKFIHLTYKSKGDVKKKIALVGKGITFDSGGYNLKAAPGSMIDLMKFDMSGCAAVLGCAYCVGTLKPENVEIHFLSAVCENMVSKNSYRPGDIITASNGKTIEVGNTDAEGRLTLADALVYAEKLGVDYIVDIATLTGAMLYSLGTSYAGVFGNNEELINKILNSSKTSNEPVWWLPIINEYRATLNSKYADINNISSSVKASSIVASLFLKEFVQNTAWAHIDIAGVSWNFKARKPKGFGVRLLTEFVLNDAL

BJ [4] = assay: cells; assay type: functional, cell-based; settings: Homo sapiens
Galanin receptor type 3 = molecular target: T2, Galanin receptor type 3 (Homo sapiens, UniProt O60755); assay: Fluorescence-based cell-based primary high throughput dose response assay to identify antagonists of the Galanin Receptor 3 (GalR3).; assay type: functional
T2 sequence (O60755 whole entry): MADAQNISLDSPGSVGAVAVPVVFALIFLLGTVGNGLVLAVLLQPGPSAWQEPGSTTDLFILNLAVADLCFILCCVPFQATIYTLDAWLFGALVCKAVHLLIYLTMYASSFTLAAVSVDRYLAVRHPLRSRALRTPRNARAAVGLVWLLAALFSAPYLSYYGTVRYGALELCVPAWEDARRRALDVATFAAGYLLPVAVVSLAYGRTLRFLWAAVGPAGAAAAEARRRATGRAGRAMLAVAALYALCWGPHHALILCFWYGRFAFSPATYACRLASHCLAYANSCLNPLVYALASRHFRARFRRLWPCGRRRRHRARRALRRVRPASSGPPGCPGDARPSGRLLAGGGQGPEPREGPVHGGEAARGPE

BJ [5] = assay: BJ-TERT fibroblast viability loss – cell-based, RAS-independent, luminescence, dose response (AID 1933); assay type: functional; settings: Homo sapiens
cells [6] = settings: A549
[7] = viability loss in HepG2 liver cells – cell-based, ATP luminescence, cherry-pick, set 6, cytotoxicity control, dose response (AID 1053125); assay type: functional
BJ [8] = assay: BJ-TERT-LT-ST fibroblast viability loss – cell-based, RAS-independent, luminescence, dose response (AID 1935); assay type: functional; settings: Homo sapiens;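 also: BJ fibroblasts immortalized with TERT plus LT and ST oncogenes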
[9] = system: Streptococcus sp. 'group A'; assay: Streptococcus pyogenes SK(-)GAS viability under kanamycin – luminescence, BacTiterGlo, confirmation, counter-screen for streptokinase expression inhibitor project, dose response (AID 1900); assay type: functional, organism-based
INS1 = assay: INS-1E survival protection against cytokine death – cell-based, luminescence, retest, dose response (AID 449756); assay type: functional; settings: Rattus norvegicus;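 also: cell death triggered by IL-1 beta plus TNF-alpha plus IFN-gamma mixture; protective hits raise ATP signal compared with cytokine alone wells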
[10] = molecular target: T3, Heat shock factor protein 1 (Mus musculus, UniProt P38532); assay: decrease of HSF1-responsive luciferase luminescence – cell-based, NIH3T3, dose retest, confirmation (AID 2382); assay type: functional;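 also: NIH3T3 fibroblasts with HSF1-driven luciferase reporter stressed by proteasome inhibitor MG132; luminescence from HSF1-driven luciferase expression after 8 hours of MG132 stress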
T3 sequence (P38532 whole entry): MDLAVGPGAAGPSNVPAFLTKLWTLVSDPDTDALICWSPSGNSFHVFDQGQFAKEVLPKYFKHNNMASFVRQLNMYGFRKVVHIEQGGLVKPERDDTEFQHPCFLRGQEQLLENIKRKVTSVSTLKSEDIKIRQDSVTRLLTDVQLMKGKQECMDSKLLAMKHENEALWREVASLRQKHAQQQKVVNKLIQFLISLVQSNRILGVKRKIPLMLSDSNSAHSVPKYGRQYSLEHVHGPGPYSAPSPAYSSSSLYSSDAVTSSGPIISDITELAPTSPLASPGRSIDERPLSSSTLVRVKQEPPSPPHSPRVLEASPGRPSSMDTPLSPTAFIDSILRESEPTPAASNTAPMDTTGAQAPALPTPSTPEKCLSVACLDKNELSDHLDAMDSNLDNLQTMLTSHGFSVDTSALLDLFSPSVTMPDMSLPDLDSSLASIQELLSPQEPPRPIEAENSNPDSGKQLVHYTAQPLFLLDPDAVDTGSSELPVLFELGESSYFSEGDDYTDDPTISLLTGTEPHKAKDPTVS

[11] = Luminescence Cell-Based Dose Retest to Confirm Inhibitors of Cancer Stem Cells. [Related pubchem assays (depositor defined):AID2717, AID2721]; assay type: functional, Homo sapiens; settings: Homo sapiens
Streptococcus = assay: GAS UMAA2166 growth inhibition – luminescence, BacTiterGlo, counter-screen for streptokinase expression inhibitor project, dose response (AID 1915); assay type: functional, organism-based;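 also: potency for reduction of bacterial viability or growth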
[12] = reduction of Shn3 3'UTR-driven luciferase in osteoblasts – cell-based, Clone20 osteoblasts, firefly luciferase, cherry-picked, dose response (AID 624132); assay type: functional;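 also: firefly luciferase luminescence from reporter carrying the Shn3 3'UTR in osteoblasts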
[13] = Shn3 3'UTR reporter signal decrease – cell-based, Clone20 osteoblasts, firefly luciferase, cherry-pick, set 2, Schnurri-3 inhibitor project, dose response (AID 720490); assay type: functional;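 also: actives lower the luminescence signal as inhibitors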
[14] = EF1alpha-driven Renilla reporter with control 3'UTR suppression – Clone20-Shn3RL cells, dual-Glo, cherry-pick, set 2, counter-screen for Shn3 3'UTR targeting project, dose response (AID 720724); assay type: functional, cell-based; settings: Dual-Go Shn3RL
[15] = A Cell-Based Counter Screen testing Compounds that Inhibit VEEV TC-83, in strain KU V3526.; assay type: functional
Vero [16] = assay: cells; assay type: functional; settings: Chlorocebus sabaeus
[17] = A Cell-Based Confirmatory Screen for Compounds that Inhibit VEEV, TC-83 (2).; assay type: functional
Vero [18] = assay: cells; assay type: functional, cell-based; settings: Chlorocebus sabaeus
[19] = A Cell-Based Confirmatory Screen for Compounds that Inhibit VEEV, TC-83 (8).; assay type: functional
cells [20] = assay type: functional, cell-based
[21] = molecular target: Disintegrin and metalloproteinase domain-containing protein 17 (Homo sapiens, UniProt P78536); assay: inhibition of ADAM17 substrate cleavage – biochemical, quenched FRET substrate, counter-screen for ADAM10 exosite inhibitor project, dose response (AID 743253)
cells [22] = assay type: functional, cell-based; remark: listed apart in the source
[23] = potency of ADAM10 substrate cleavage blockers – biochemical, QFRET, dose response (AID 743254);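 also: ADAM10 enzyme with the DM2 quenched FRET peptide as substrate; EDANS fluorescence gain as the protease cuts the substrate; inhibitor potency against ADAM10 proteolytic activity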
[24] = molecular target: T4, Methionyl-tRNA synthetase, putative (Trypanosoma brucei brucei, UniProt Q38C91); assay type: functional, Trypanosoma brucei brucei strain 927/4 GUTat10.1
T4 sequence (Q38C91 whole entry): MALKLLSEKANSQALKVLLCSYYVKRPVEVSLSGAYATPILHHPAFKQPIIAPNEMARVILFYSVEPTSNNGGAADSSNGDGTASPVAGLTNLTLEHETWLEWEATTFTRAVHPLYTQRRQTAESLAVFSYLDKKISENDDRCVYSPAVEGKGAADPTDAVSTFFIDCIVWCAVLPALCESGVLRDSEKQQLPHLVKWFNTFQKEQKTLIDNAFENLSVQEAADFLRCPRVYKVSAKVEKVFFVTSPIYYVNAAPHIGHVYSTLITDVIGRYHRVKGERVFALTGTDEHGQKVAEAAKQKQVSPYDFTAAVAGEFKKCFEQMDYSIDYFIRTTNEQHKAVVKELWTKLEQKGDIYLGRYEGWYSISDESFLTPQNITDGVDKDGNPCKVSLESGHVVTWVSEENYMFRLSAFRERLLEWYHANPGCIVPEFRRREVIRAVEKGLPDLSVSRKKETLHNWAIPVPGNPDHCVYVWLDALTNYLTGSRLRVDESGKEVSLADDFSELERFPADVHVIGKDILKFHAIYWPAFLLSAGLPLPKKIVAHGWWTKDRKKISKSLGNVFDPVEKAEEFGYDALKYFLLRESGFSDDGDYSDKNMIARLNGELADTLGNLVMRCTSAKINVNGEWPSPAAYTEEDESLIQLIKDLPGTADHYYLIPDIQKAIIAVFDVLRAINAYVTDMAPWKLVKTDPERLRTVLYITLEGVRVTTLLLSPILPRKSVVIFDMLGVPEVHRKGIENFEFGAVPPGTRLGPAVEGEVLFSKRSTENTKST

[25] = Counterscreen for inhibitors of Trypanosoma brucei methionyl tRNA synthetase (MetRS): Luminescence-based cell-based high throughput dose response assay to identify compounds that are cytotoxic to Jurkat human T lymphocyte cells.; assay type: functional
[26] = Late stage counterscreen for inhibitors of Trypanosoma brucei methionyl tRNA synthetase (MetRS): Luminescence-based cell-based high throughput dose response assay to identify compounds that are cytotoxic to Jurkat human T lymphocyte cells.; assay type: functional
[27] = molecular target: T4, Methionyl-tRNA synthetase, putative; assay type: functional, Trypanosoma brucei brucei strain 927/4 GUTat10.1; remark: listed apart in the source
[28] = toxicity toward immortalized ovarian surface epithelium – cell-based, plate reader, dry powder samples, cytotoxicity control for PAX8 inhibitor project, dose response (AID 743045); assay type: functional
[29] = IGROV1 cell killing – plate reader, dry powder samples, PAX8 inhibitor project, dose response (AID 743043); assay type: functional, cell-based; settings: IGROV-1
Paired box protein Pax-8 = Paired box protein Pax-8 (Homo sapiens, UniProt Q06710); assay: PAX8 transcriptional activity inhibition in RMG-I – RMG-I cells, luciferase, cherry-pick, dose response (AID 687027); assay type: functional, cell-based;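 also: luciferase reporter driven by Pax8 target thyroperoxidase promoter measured by SteadyGlo luminescence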
[30] = OVCAR-3 cell viability loss – plate reader, dry powder samples, PAX8 inhibitor project, dose response (AID 743044); assay type: functional, cell-based
[31] = OVCAR8 cell viability loss – plate reader, dry powder samples, PAX8 project, dose response (AID 743197); assay type: functional, cell-based; settings: OVCAR-8
[32] = inhibitors of non-replicating M. tuberculosis, dose response, luciferase, dry powder (AID 651619); assay type: functional; settings: Mycobacterium tuberculosis
[33] = inhibitors of non-replicating M. tuberculosis, dose response, luciferase, dry powder (AID 651620); assay type: functional; settings: Mycobacterium tuberculosis
[34] = MITF Orthogonal Assay: SK-MEL-5 CTG Assay Measured in Cell-Based System Using Plate Reader - 2084-02_Inhibitor_Dose_DryPowder_Activity_Set7.; assay type: functional
[35] = inhibitors of TRPM1-promoter reporter in SK-MEL-5 – cell-based, luciferase, dry powder, set 8, MITF inhibitor project, dose response (AID 624430); assay type: functional
[36] = MITF: Counter assay: A375 proliferation Measured in Cell-Based System Using Plate Reader - 2084-03_Inhibitor_Dose_DryPowder_Activity_Set8.; assay type: functional; settings: A-375

Chain of Paired box protein Pax-8 (Q06710 whole entry): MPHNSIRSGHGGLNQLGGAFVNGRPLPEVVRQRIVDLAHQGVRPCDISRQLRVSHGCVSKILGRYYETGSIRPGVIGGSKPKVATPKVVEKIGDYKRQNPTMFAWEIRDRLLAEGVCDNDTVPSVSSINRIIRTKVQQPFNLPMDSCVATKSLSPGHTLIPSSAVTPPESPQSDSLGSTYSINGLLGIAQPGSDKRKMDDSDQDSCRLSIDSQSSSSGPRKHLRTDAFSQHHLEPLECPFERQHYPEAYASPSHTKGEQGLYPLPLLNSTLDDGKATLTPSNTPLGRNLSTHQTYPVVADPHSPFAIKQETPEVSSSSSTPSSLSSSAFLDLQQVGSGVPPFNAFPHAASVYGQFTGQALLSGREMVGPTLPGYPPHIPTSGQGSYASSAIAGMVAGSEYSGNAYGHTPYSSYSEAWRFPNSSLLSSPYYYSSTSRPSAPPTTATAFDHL
Chain of Disintegrin and metalloproteinase domain-containing protein 17 (P78536 whole entry, the tested form may be a part): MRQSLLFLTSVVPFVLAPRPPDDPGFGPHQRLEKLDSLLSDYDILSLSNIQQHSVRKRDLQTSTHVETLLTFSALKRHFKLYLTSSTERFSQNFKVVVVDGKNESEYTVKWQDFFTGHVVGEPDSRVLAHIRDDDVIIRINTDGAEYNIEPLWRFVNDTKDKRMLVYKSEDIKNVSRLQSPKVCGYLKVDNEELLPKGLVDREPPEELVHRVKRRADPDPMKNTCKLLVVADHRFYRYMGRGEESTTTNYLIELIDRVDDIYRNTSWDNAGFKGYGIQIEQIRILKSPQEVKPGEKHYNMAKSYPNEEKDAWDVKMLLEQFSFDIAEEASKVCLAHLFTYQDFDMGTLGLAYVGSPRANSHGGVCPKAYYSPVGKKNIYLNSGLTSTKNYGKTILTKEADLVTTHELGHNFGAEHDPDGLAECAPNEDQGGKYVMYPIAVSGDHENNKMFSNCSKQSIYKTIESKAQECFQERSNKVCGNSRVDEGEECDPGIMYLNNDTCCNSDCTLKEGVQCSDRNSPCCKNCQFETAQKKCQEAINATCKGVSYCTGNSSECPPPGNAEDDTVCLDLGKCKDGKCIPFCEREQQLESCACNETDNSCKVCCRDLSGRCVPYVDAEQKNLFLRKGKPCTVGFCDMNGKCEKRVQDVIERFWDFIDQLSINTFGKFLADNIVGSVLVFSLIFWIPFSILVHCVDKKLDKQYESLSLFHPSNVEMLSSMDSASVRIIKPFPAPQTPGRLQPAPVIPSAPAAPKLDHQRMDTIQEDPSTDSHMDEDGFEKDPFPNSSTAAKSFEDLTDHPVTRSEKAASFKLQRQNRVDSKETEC

COc1ccc(N2C(C)=CC(=Cc3sc4ccccc4[n+]3C)C=C2C)cc1
inconclusive: EC50 [2] 2.06 µM | EC50 (BJ [5]) 0.359 µM | EC50 (BJ [8]) 4 µM
inactive: EC50 (cells [3]) > 29.9 µM
active: AC50 (cells [1]) 3.36 µM | IC50 (Leucine aminopeptidase) 60.3 µM | EC50 (BJ [4]) 1.38 µM | IC50 (Galanin receptor type 3) 0.246 µM | AC50 (cells [6]) 0.315 µM | AC50 [7] 14.3 µM

COc1c(CC=C(C)C)cc(C2CC(=O)c3c(O)cc(O)cc3O2)cc1CC=C(C)C (stereo unspecified)
active: EC50 [9] 2.47 µM | AC50 (INS1) 4.52 µM | EC50 [10] 11.8 µM | AC50 [11] 3.04 µM | EC50 (Streptococcus) 3.2 µM | AC50 [12] 5.42 µM | AC50 [13] 2.82 µM | AC50 [14] 24.6 µM

O=c1nc(Nc2ccc(OCc3ccccc3)cc2)sc2ncccc12
active: IC50 [15] 2.38 µM | CC50 (Vero [16]) > 25 µM | IC50 [17] 2.79 µM | IC50 (Vero [18]) 2.86 µM | IC50 [19] 0.94 µM

COc1ccc(S(=O)(=O)N2CCC(c3cc(-c4cccc5ccccc45)[nH]n3)CC2)cc1
> 350 µM (not active): EC50 (cells [20]) | EC50 (cells [22])
inactive: IC50 [21] > 69.5 µM | IC50 [23] > 69.5 µM

CCO[C@H]1OC(C(=O)NCc2nc3ccccc3[nH]2)=C[C@@H](c2ccc(Br)cc2)[C@@H]1CCCO
active: IC50 [24] 8.41 µM | IC50 [27] 5.73 µM
inactive: IC50 [25] 83.3 µM | IC50 [26] 57 µM

COc1cccc(S(=O)(=O)N2CC[C@@H]3[C@@H](CO)Nc4ccc(-c5ccccc5OC)cc4[C@@H]32)c1
active: AC50 [28] 33 µM | AC50 [29] 36.5 µM | AC50 (Paired box protein Pax-8) 10.6 µM | AC50 [30] 19.6 µM | AC50 [31] 31.1 µM

COc1ccccc1-c1nnc(SCc2ccccn2)o1
active: IC90 [32] 31 µM | IC90 [33] 31 µM

O=C1C(Nc2cccc(Cl)c2)=C(N2CCCCC2)C(=O)c2ccccc21
active: AC50 [34] 15.7 µM | AC50 [35] 3.46 µM | AC50 [36] 50.1 µM
